Reference: patent publication USRE38333E1, “Antiviral phosphonomethoxy nucleotide analogs having increased oral bioavailability” (Gilead Sciences, Inc., priority 1996, dated 2003)

experiment: not given; format: in vitro ADME; settings: 37° C., 20 μg/mL
Description: (§1) Enzymatic stability studies involving plasma and intestinal homogenate were performed with 90% biological fluids.
(§2) One blank (drug free) incubation was performed for each biological fluid. All biological fluid tubes (open) were pre-incubated without PMPA prodrugs in a shaker bath at 37° C. and 100 oscillation/min for 5 minutes. PMPA prodrugs was added to the test incubations (final concentration: 20 μg/mL, mixed and maintained at 37° C. and 100 oscillations/min. Samples (50 μL) were withdrawn at 0, 30, and 60 minutes and the reaction was quenched with 100 μL of 0.1% trifluoroacetic acid (TFA) in acetonitrile. Quenched samples were centrifuged for 5 minutes at 14,000 rpm in an Eppendorf Centrifuge 5402, and the supernatant was used for HPLC analysis.
(§3) For each incubation, the observed rate constant for degradation was calculated by plotting the log of the peak area of PMPA prodrugs versus time of incubation (min). The slope was the observed rate constant (kobs). The half life was calculated according to the following equation: [formula]
(§4) If the observed rate constant for degradation was less than 0.01 min^−1, then t½ was expressed as stable.

SMILES	Biological t½ (min) (Dog) Plasma
CC(C)COC(=O)OCOP(=O)(CO[C@H](C)Cn1cnc2c(N)ncnc21)OCOC(=O)OCC(C)C [Bis-IBu COM PMPA]	<5 min
CCCN(CCC)C(=O)OCOP(=O)(CO[C@H](C)Cn1cnc2c(N)ncnc21)OCOC(=O)N(CCC)CCC [Bis-di-n-proNCOM PMPA]	Stable (If the observed rate constant for degradation was less than 0.01 min^−1, then t½ was expressed as stable)
CC(C)OC(=O)OCOP(=O)(CO[C@H](C)Cn1cnc2c(N)ncnc21)OCOC(=O)OC(C)C [Bis-isopropylCOM PMPA, Bis Isopropyl Oxymethyl Carbonate of PMPA]	20.5 min
CCCCOC(=O)OCOP(=O)(CO[C@H](C)Cn1cnc2c(N)ncnc21)OCOC(=O)OCCCC [Bis-nBuCOM PMPA, Bis-n-butyl Oxymethyl Carbonate of PMPA]	<5 min
C[C@H](Cn1cnc2c(N)ncnc21)OCP(=O)(OCOC(=O)NC(C)(C)C)OCOC(=O)NC(C)(C)C [Bis-tBuNCOM PMPA]	99.5 min

experiment: Enzymatic stability in dog liver homogenate (S9); format: in vitro ADME; settings: 37° C., 20 μg/mL
Description: Dog liver was obtained fresh from Pharmakon USA (Waverly, Pa.). Liver homogenate was prepared following a standard protocol. Dog liver was rinsed three times with ice-code 50 mM sodium/potassium phosphate buffer and homogenized with a Tekmar Tissumizer homogenizer (VWR 33995-060). The homogenate was centrifuged at 9000 g (11,000 rpm for Eppendorf Centrifuge 5402; Brinkman Instruments, Westbury, N.Y.) at 4° C. for 20 minutes. The supernatant was designated at the S9 fraction. The concentration of protein in the S9 fraction was determined using a Bio-Rad Protein Assay Kit II, with bovine serum albumin as standard. Esterase activity was determined using o-nitrophenyl butyreate as substrate and activity was calculated based on the increase in absorbance at 420 nm after a 1 min incubation. The homogenates were stored as 1.0 mL aliquots at −70° C.
as §2, §3, §4

SMILES	Biological t½ (min) (Dog) Liver
CC(C)COC(=O)OCOP(=O)(CO[C@H](C)Cn1cnc2c(N)ncnc21)OCOC(=O)OCC(C)C [Bis-IBu COM PMPA]	<5 min
CCCN(CCC)C(=O)OCOP(=O)(CO[C@H](C)Cn1cnc2c(N)ncnc21)OCOC(=O)N(CCC)CCC [Bis-di-n-proNCOM PMPA]	76 min
CC(C)OC(=O)OCOP(=O)(CO[C@H](C)Cn1cnc2c(N)ncnc21)OCOC(=O)OC(C)C [Bis-isopropylCOM PMPA, Bis Isopropyl Oxymethyl Carbonate of PMPA]	<5 min
CCCCOC(=O)OCOP(=O)(CO[C@H](C)Cn1cnc2c(N)ncnc21)OCOC(=O)OCCCC [Bis-nBuCOM PMPA, Bis-n-butyl Oxymethyl Carbonate of PMPA]	<5 min
C[C@H](Cn1cnc2c(N)ncnc21)OCP(=O)(OCOC(=O)NC(C)(C)C)OCOC(=O)NC(C)(C)C [Bis-tBuNCOM PMPA]	166.5 min

experiment: Enzymatic stability in human intestinal homogenate (S9); format: in vitro ADME; settings: human intestinal homogenate (values in parentheses), 37° C., 20 μg/mL
Description: Human intestinal homogenate (S9) was obtained from Keystone Skin Bank (Exton, Pa.) at concentration of 20 mg protein/mL.
as §1, §2, §3, §4

SMILES	Biological t½ (min) (Human) Intestine
CC(C)COC(=O)OCOP(=O)(CO[C@H](C)Cn1cnc2c(N)ncnc21)OCOC(=O)OCC(C)C [Bis-IBu COM PMPA]	(<5) min
CC(C)OC(=O)OCOP(=O)(CO[C@H](C)Cn1cnc2c(N)ncnc21)OCOC(=O)OC(C)C [Bis-isopropylCOM PMPA, Bis Isopropyl Oxymethyl Carbonate of PMPA]	(<5) min
CCCCOC(=O)OCOP(=O)(CO[C@H](C)Cn1cnc2c(N)ncnc21)OCOC(=O)OCCCC [Bis-nBuCOM PMPA, Bis-n-butyl Oxymethyl Carbonate of PMPA]	(<5) min

experiment: Partition coefficient (Log PC); format: physicochemical; settings: not given

SMILES	Log PC pH 7.4
CC(C)COC(=O)OCOP(=O)(CO[C@H](C)Cn1cnc2c(N)ncnc21)OCOC(=O)OCC(C)C [Bis-IBu COM PMPA]	2.0
CC(C)OC(=O)OCOP(=O)(CO[C@H](C)Cn1cnc2c(N)ncnc21)OCOC(=O)OC(C)C [Bis-isopropylCOM PMPA, Bis Isopropyl Oxymethyl Carbonate of PMPA]	1.25
CCCCOC(=O)OCOP(=O)(CO[C@H](C)Cn1cnc2c(N)ncnc21)OCOC(=O)OCCCC [Bis-nBuCOM PMPA, Bis-n-butyl Oxymethyl Carbonate of PMPA]	2.7

experiment: not given; format: in vitro ADME; settings: dog intestinal homogenate, 37° C., 20 μg/mL
Description: Dog intestinal segments (jejunum/ileum) were obtained fresh from Pharmakon USA (Waverly, Pa.) and intestinal homogenate was prepared as described for liver. The intestinal homogenates were stored as 1.0 mL aliquots at −70° C.
as §1, §2, §3, §4

SMILES	Biological t½ (min) (Dog) Intestine
CC(C)COC(=O)OCOP(=O)(CO[C@H](C)Cn1cnc2c(N)ncnc21)OCOC(=O)OCC(C)C [Bis-IBu COM PMPA]	15 min
CCCN(CCC)C(=O)OCOP(=O)(CO[C@H](C)Cn1cnc2c(N)ncnc21)OCOC(=O)N(CCC)CCC [Bis-di-n-proNCOM PMPA]	Stable (If the observed rate constant for degradation was less than 0.01 min^−1, then t½ was expressed as stable)
CC(C)OC(=O)OCOP(=O)(CO[C@H](C)Cn1cnc2c(N)ncnc21)OCOC(=O)OC(C)C [Bis-isopropylCOM PMPA, Bis Isopropyl Oxymethyl Carbonate of PMPA]	52.6 min
CCCCOC(=O)OCOP(=O)(CO[C@H](C)Cn1cnc2c(N)ncnc21)OCOC(=O)OCCCC [Bis-nBuCOM PMPA, Bis-n-butyl Oxymethyl Carbonate of PMPA]	<5 min
C[C@H](Cn1cnc2c(N)ncnc21)OCP(=O)(OCOC(=O)NC(C)(C)C)OCOC(=O)NC(C)(C)C [Bis-tBuNCOM PMPA]	107.5 min

experiment: Oral bioavailability of PMPA and PMPA carbonates in beagle dogs; format: in vivo; settings: 6.2-10 mg eq of PMPA/kg, PMPA in plasma
Description: PMPA (9-[(R)-2-(phosphonomethoxy)propyl]adenine) and PMPA carbonates were examined to determine the effect of dose on the pharmacokinetics of PMPA in beagle dogs, in particular the bioavailability of PMPA following oral administration to beagle dogs.
The intravenous formulations used as standards were isotonic aqueous solutions containing 50 mg/mL PMPA. Compound was added to 10 mL of WFI (water for injection from Abbott Laboratory) and 1N NaOH was added to adjust the pH to 7.4. The solutions were diluted to 15 mL with WFI and sterile filtered with a 0.2 μm filter. The PMPA dose was 10 mg/kg (0.2 mL/kg).
The intravenous formulation for a 1 mg/kg dose was prepared as described above except only 75 mg of PMPA was added to WFI and the final concentration was 5 mg/mL. The dose was 1 mg/kg (0.2 mL/kg). Oral formulations of carbonates were prepared in 20-40% PEG 400/50 mM citric acid and were adjusted to pH 2.2.
Two groups of five adult male beagle dogs were used. The mean body weight at the time of the first does was 9.6±0.4 Kg (range 9.2-10.2). The dogs were fasted 12-18 hours prior to dosing and until 6 hours post-dose. For pentagastrin pretreatment, dogs were given a single intramuscular injection of pentagastrin (Peptavlon 0.25 mg/mL, Ayerst Laboratories, Inc., Philadelphia, Pa.) at a dose of 6 μg/kg, 20 minutes prior to dosing. Water was provided ad lib.
Each formulation was administered as a single dose to five male beagle dogs. Individual vials of each formulation were provided for each animal. The intravenous formulation was administrated via a cephalic vein. The oral suspension was administered by gavage, followed by two 10 mL water washes. At least one week washout period was allowed between administrations.
Blood samples (4.0 mL) were collected by direct jugular access from each animal into heparinized tubes. Animals remained conscious throughout the sample collection period. Blood was processed immediately for plasma by centrifugation at 2000 rpm for 10 minutes. Plasma samples were frozen and maintained at ≦−20° C. until analyzed.
Urine samples were collected over 0-24 and 24-48 hours time periods. Urine samples from 0-24 and 24-48 hours were divided into aliquots and mixed based on the volume collected and analyzed to determine amount of PMPA recovered from urine during 0-48 hours.
PMPA in Plasma and Urine was determined as follows. PMEA (9-(2-phosphono-methoxyethyl)adenine; adefovir) was used as the internal standard for both analyses. The total concentration of PMPA in dog plasma or urine samples was determined by derivatizing PMPA and PMEA with chloroacetaldehyde to yield a highly fluorescent N^1,N^6-ethenoadenine derivative as described (Russell, J. et al. (1991) Determination of 9-[(2-Phosophonylmethoxy)-ethyl]Adenine in Rat Urine by High-Performance Liquid Chromatography with Fluorescence Detection. J. Chromatogr. (Netherlands) 572, 321-326).
Sample Extraction for PMPA in plasma and urine was performed as follows. Plasma (200 μL) and internal standard ([…]) were mixed with 400 μL of acetonitrile containing 0.1% TFA to precipitate protein. Samples were then evaporated to dryness under reduced pressure at room temperature (Savant SpeedVac). Urine samples (20 μL) and internal standard (30 μL of 10 μg/mL PMEA providing a final PMEA concentration of 1.5 μg/mL) were used directly for derivatization without drying.
The samples were derivatized for analysis as follows. Dried plasma samples or urine samples were reconstituted or mixed in 200 μL derivatization cocktail (0.34% chloroacetaldehyde in 100 mM sodium acetate, pH 4.5), vortexed, and centrifuged for 10 minutes at 14,000 rpm in an Eppendorf Centrifuge 5402. Supernatant was then transferred to a clean screw capped tube and incubated at 95° C. for 40 minutes. Derivatized samples were quenched on ice and evaporated to dryness under reduced pressure at room temperature. […]

SMILES	% of PMPA IV (1 mg/kg) AUC: PMPA
CC(C)COC(=O)OCOP(=O)(CO[C@H](C)Cn1cnc2c(N)ncnc21)OCOC(=O)OCC(C)C [Bis-IBu COM PMPA]	24.5 ± 8.82%
CC(C)OC(=O)OCOP(=O)(CO[C@H](C)Cn1cnc2c(N)ncnc21)OCOC(=O)OC(C)C [Bis-isopropylCOM PMPA, Bis Isopropyl Oxymethyl Carbonate of PMPA]	35.8 ± 14.7%
CCCCOC(=O)OCOP(=O)(CO[C@H](C)Cn1cnc2c(N)ncnc21)OCOC(=O)OCCCC [Bis-nBuCOM PMPA, Bis-n-butyl Oxymethyl Carbonate of PMPA]	17.3 ± 2.57%
C[C@H](Cn1cnc2c(N)ncnc21)OCP(=O)(OCOC(=O)NC(C)(C)C)OCOC(=O)NC(C)(C)C [Bis-tBuNCOM PMPA]	8.86 ± 2.38%

same assay, conditions: intact prodrug in plasma

SMILES	% of PMPA IV (1 mg/kg) AUC: Prodrug
CC(C)OC(=O)OCOP(=O)(CO[C@H](C)Cn1cnc2c(N)ncnc21)OCOC(=O)OC(C)C [Bis-isopropylCOM PMPA, Bis Isopropyl Oxymethyl Carbonate of PMPA]	0%
C[C@H](Cn1cnc2c(N)ncnc21)OCP(=O)(OCOC(=O)NC(C)(C)C)OCOC(=O)NC(C)(C)C [Bis-tBuNCOM PMPA]	9.97%

same assay, conditions: monoester in plasma

SMILES	% of PMPA IV (1 mg/kg) AUC: Monoester
CC(C)OC(=O)OCOP(=O)(CO[C@H](C)Cn1cnc2c(N)ncnc21)OCOC(=O)OC(C)C [Bis-isopropylCOM PMPA, Bis Isopropyl Oxymethyl Carbonate of PMPA]	3.1%

same assay, conditions: other species in plasma

SMILES	% of PMPA IV (1 mg/kg) AUC: other
CC(C)OC(=O)OCOP(=O)(CO[C@H](C)Cn1cnc2c(N)ncnc21)OCOC(=O)OC(C)C [Bis-isopropylCOM PMPA, Bis Isopropyl Oxymethyl Carbonate of PMPA]	0%
